Laboratory results as given in ChEMBL document CHEMBL4402590, “Small-Molecule Antagonist Targeting Exportin-1 via Rational Structure-Based Discovery” (J Med Chem, 2020).
Activity calls are given as the source filed them.

Assays:
Assay type in all cases: functional, organism-based
Mus musculus [1] = assay: Anti-inflammatory activity against DSS-induced ulcerative colitis C57BL/6J mouse model assessed as reduction in body weight loss at 10 mg/kg, po administered for 7 days and measured daily
Mus musculus [2] = assay: Anti-inflammatory activity against DSS-induced ulcerative colitis C57BL/6J mouse model assessed as reduction in diarrhea at 10 mg/kg, po administered for 7 days and measured daily
Mus musculus [3] = assay: Anti-inflammatory activity against DSS-induced ulcerative colitis C57BL/6J mouse model assessed as restoration of colon length at 10 mg/kg, po administered for 7 days and measured on day 7
Mus musculus [4] = assay: Anti-inflammatory activity against DSS-induced ulcerative colitis C57BL/6J mouse model assessed as reduction in colon swelling at 10 mg/kg, po administered for 7 days and measured on day 7
Mus musculus [5] = assay: Anti-inflammatory activity against DSS-induced ulcerative colitis C57BL/6J mouse model assessed as reduction in colon inflammation at 10 mg/kg, po administered for 7 days and measured on day 7
Mus musculus [6] = assay: Anti-inflammatory activity against DSS-induced ulcerative colitis C57BL/6J mouse model assessed as reduction in colon ulceration at 10 mg/kg, po administered for 7 days and measured on day 7
Mus musculus [7] = assay: Anti-inflammatory activity against DSS-induced ulcerative colitis C57BL/6J mouse model assessed as reduction in TNFalpha production at 10 mg/kg, po administered for 7 days and measured on day 7 by ELISA
Mus musculus [8] = assay: Anti-inflammatory activity against DSS-induced ulcerative colitis C57BL/6J mouse model assessed as reduction in IL-1beta production at 10 mg/kg, po administered for 7 days and measured on day 7 by ELISA
Mus musculus [9] = assay: Anti-inflammatory activity against DSS-induced ulcerative colitis C57BL/6J mouse model assessed as reduction in IL-6 production at 10 mg/kg, po administered for 7 days and measured on day 7 by ELISA
Mus musculus [10] = assay: Anti-inflammatory activity against DSS-induced ulcerative colitis C57BL/6J mouse model assessed as reduction in IL-23 production at 10 mg/kg, po administered for 7 days and measured on day 7 by ELISA
Mus musculus [11] = assay: Anti-inflammatory activity against DSS-induced ulcerative colitis C57BL/6J mouse model assessed as restoration of damaged colon mucosal layer at 10 mg/kg, po administered for 7 days and measured on day 7 by ELISA

Measured: Activity

O=C(O)C[C@H]1CCc2c1[nH]c1ccc(OCc3ccc(C4CCCC4)c(C(F)(F)F)c3)cc21
active: all assays above
